Data on five compounds can be found in US20250353891A1 (MEDIMMUNE LIMITED, priority 2022, published 2025).

Starred links: 1 amine or outer side, 2 acyl side, 3 side chain; linkers in the order of their positions; H or OH if unused. Non-standard residues stand in square brackets, D forms with d. Residues, ends and D or L forms follow the SMILES beside them. Groups on a side chain read outwards from the residue. *: point of attachment. C20 diacid = O=C(O)CCCCCCCCCCCCCCCCCCC(=O)*; C18 diacid = O=C(O)CCCCCCCCCCCCCCCCC(=O)*; γGlu = O=C(O)[C@H](CCC(=O)[*:2])N[*:1]; αMeF = C[C@](N)(Cc1ccccc1)C(=O)O; AEEA = NCCOCCOCC(=O)O; Aib = CC(C)(N)C(=O)O

For assay [1], the target named is human glucagon receptor (hGCGR) (Homo sapiens, UniProt P47871). Nature of the assay: cAMP production (HTRF) in CHO cells expressing hGCGR. It is filed as cell-based. The arrangement: expressed in transfected cells. As to conditions: Table 6, peptides modified at position 17; cAMP in CHO hGCGR cells; geometric mean; read-out: hGluc-R EC50. Put shortly: (§1)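 Potency values represent EC50 from 4-parameter logistic curves of HTRF % Delta F signal. Receptor-expressing CHO cells (hGCGR 2×10^5 cells/mL, hGLP-1R 1×10^5 cells/mL) were exposed for 30 min at room temperature before two-step cAMP detection.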
Sequence of human glucagon receptor (hGCGR) (P47871 26-477): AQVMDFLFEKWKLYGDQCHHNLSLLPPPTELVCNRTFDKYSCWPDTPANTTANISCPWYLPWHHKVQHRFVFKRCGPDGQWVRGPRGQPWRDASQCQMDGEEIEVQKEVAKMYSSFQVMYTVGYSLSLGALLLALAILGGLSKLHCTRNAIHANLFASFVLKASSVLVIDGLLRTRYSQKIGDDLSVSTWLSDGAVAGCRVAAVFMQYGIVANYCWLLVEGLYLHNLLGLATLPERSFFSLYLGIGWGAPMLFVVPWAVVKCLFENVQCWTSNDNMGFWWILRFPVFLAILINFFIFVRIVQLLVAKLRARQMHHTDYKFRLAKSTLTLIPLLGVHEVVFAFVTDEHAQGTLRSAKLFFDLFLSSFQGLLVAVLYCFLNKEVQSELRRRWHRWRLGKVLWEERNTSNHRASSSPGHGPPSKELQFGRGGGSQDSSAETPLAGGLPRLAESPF
For orientation: Changes in cAMP serve as a functional read-out for many G protein-coupled receptors.

Assay [2] has as its target human GLP-1 receptor (hGLP-1R) (Homo sapiens, UniProt P43220). Nature of the assay: cAMP production (HTRF) in CHO cells expressing hGLP-1R. Also noted: expressed in transfected cells. It counts as cell-based. As to conditions: for EC50: Table 6, peptides modified at position 17, cAMP in CHO hGLP-1R cells, geometric mean, read-out: hGLP-1R EC50; for % Relative Potency Ratio: Table 6, % GLP-1R activity relative to GLP-1 / % GlucR activity relative to glucagon. Put shortly:
as §1

Sequence of human GLP-1 receptor (hGLP-1R) (P43220 24-463): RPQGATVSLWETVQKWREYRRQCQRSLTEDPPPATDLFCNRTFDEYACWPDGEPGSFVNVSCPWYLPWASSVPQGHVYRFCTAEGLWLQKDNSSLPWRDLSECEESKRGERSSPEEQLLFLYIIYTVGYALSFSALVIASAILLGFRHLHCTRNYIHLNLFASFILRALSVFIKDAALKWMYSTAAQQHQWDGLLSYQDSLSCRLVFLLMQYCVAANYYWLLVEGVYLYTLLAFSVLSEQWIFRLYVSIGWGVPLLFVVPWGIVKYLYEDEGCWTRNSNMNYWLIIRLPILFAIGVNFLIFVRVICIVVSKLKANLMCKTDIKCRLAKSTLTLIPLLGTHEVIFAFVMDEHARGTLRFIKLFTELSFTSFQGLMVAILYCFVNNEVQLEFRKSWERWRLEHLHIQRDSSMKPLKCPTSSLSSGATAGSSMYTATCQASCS

Take `CC(C)C[C@H](NC(=O)[C@H](Cc1c[nH]c2ccccc12)NC(=O)[C@H](CCCNC(=N)N)NC(=O)[C@@H](NC(=O)[C@H](Cc1ccccc1)NC(=O)[C@H](CC(=O)O)NC(=O)[C@H](CCC(N)=O)NC(=O)[C@H](C)NC(=O)[C@H](CCCNC(=N)N)NC(=O)[C@H](CCCCNC(=O)COCCOCCNC(=O)COCCOCCNC(=O)CC[C@H](NC(=O)CCCCCCCCCCCCCCCCC(=O)O)C(=O)O)NC(=O)[C@H](CO)NC(=O)[C@H](CCC(=O)O)NC(=O)[C@H](CC(C)C)NC(=O)[C@](C)(Cc1ccccc1)NC(=O)[C@H](CCCCN)NC(=O)[C@H](CO)NC(=O)[C@@H](NC(=O)[C@H](CC(=O)O)NC(=O)[C@H](CO)NC(=O)[C@@H](NC(=O)[C@H](Cc1ccccc1)NC(=O)[C@@H](NC(=O)CNC(=O)[C@H](CCC(N)=O)NC(=O)C(C)(C)NC(=O)[C@@H](N)Cc1c[nH]cn1)[C@@H](C)O)[C@@H](C)O)C(C)C)C(C)C)C(=O)N[C@@H](CCC(=O)O)C(=O)N[C@@H](C)C(=O)NC(C)(C)C(=O)NCC(=O)O` [Peptide 415] (H-H[Aib]QGTFTSDVSK[αMeF]LESK([AEEA-AEEA-γGlu-C18 diacid])RAQDFVRWLEA[Aib]G-OH; N-terminus assumed): the concentration giving a half-maximal response (EC50) – broadly, the midpoint of the concentration-response curve – in assay [1] is 0.301 nM. Besides, in assay [2], the EC50 came out at 0.0147 nM and the “% Relative Potency Ratio” value is 40.6.

For the compound `CC(C)C[C@H](NC(=O)[C@H](Cc1c[nH]c2ccccc12)NC(=O)[C@H](CCCNC(=N)N)NC(=O)[C@@H](NC(=O)[C@H](Cc1ccccc1)NC(=O)[C@H](CC(=O)O)NC(=O)[C@H](CCC(N)=O)NC(=O)[C@H](C)NC(=O)[C@H](CCCNC(=N)N)NC(=O)[C@H](CCCCNC(=O)COCCOCCNC(=O)COCCOCCNC(=O)CC[C@H](NC(=O)CCCCCCCCCCCCCCCCCCC(=O)O)C(=O)O)NC(=O)[C@H](CO)NC(=O)[C@H](CCC(=O)O)NC(=O)[C@H](CC(C)C)NC(=O)[C@](C)(Cc1ccccc1)NC(=O)[C@H](CCCCN)NC(=O)[C@H](CO)NC(=O)[C@@H](NC(=O)[C@H](CC(=O)O)NC(=O)[C@H](CO)NC(=O)[C@@H](NC(=O)[C@H](Cc1ccccc1)NC(=O)[C@@H](NC(=O)CNC(=O)[C@H](CCC(N)=O)NC(=O)C(C)(C)NC(=O)[C@@H](N)Cc1c[nH]cn1)[C@@H](C)O)[C@@H](C)O)C(C)C)C(C)C)C(=O)N[C@@H](CCC(=O)O)C(=O)N[C@@H](C)C(=O)NC(C)(C)C(=O)NCC(=O)O` [Peptide 416] (H-H[Aib]QGTFTSDVSK[αMeF]LESK([AEEA-AEEA-γGlu-C20 diacid])RAQDFVRWLEA[Aib]G-OH; N-terminus assumed), the EC50 in assay [1] is 0.581 nM. Moreover, in assay [2], the EC50 stood at 0.0677 nM and the “% Relative Potency Ratio” value is 17.0.

For `CC(C)C[C@H](NC(=O)[C@H](Cc1c[nH]c2ccccc12)NC(=O)[C@H](C)NC(=O)[C@@H](NC(=O)[C@H](Cc1ccccc1)NC(=O)[C@H](CC(=O)O)NC(=O)[C@H](CCC(N)=O)NC(=O)[C@H](C)NC(=O)[C@H](CCCNC(=N)N)NC(=O)[C@H](CCCCNC(=O)COCCOCCNC(=O)COCCOCCNC(=O)CC[C@H](NC(=O)CC[C@H](NC(=O)CCCCCCCCCCCCCCCCC(=O)O)C(=O)O)C(=O)O)NC(=O)[C@@H](NC(=O)[C@H](CC(=O)O)NC(=O)[C@H](CC(C)C)NC(=O)[C@](C)(Cc1ccccc1)NC(=O)[C@H](CCCCN)NC(=O)[C@H](CO)NC(=O)[C@@H](NC(=O)[C@H](CC(=O)O)NC(=O)[C@H](CO)NC(=O)[C@@H](NC(=O)[C@H](Cc1ccccc1)NC(=O)[C@@H](NC(=O)CNC(=O)[C@H](CCC(N)=O)NC(=O)C(C)(C)NC(=O)[C@@H](N)Cc1c[nH]cn1)[C@@H](C)O)[C@@H](C)O)C(C)C)[C@@H](C)O)C(C)C)C(=O)N[C@@H](CCC(=O)O)C(=O)N[C@@H](C)C(=O)NC(C)(C)C(=O)NCC(=O)O` [Peptide 417] (H-H[Aib]QGTFTSDVSK[αMeF]LDTK([AEEA-AEEA-γGlu-γGlu-C18 diacid])RAQDFVAWLEA[Aib]G-OH; N-terminus assumed), the EC50 in assay [1] amounted to 0.0164 nM. Moreover, in assay [2], the EC50 turned out to be 0.0339 nM and the “% Relative Potency Ratio” value stood at 1.0.

Turning to `CC(C)C[C@H](NC(=O)[C@H](Cc1c[nH]c2ccccc12)NC(=O)[C@H](C)NC(=O)[C@@H](NC(=O)[C@H](Cc1ccccc1)NC(=O)[C@H](CC(=O)O)NC(=O)[C@H](CCC(N)=O)NC(=O)[C@H](C)NC(=O)[C@H](CCCNC(=N)N)NC(=O)[C@H](CCCCNC(=O)COCCOCCNC(=O)COCCOCCNC(=O)CC[C@H](NC(=O)CC[C@H](NC(=O)CCCCCCCCCCCCCCCCCCC(=O)O)C(=O)O)C(=O)O)NC(=O)[C@@H](NC(=O)[C@H](CC(=O)O)NC(=O)[C@H](CC(C)C)NC(=O)[C@](C)(Cc1ccccc1)NC(=O)[C@H](CCCCN)NC(=O)[C@H](CO)NC(=O)[C@@H](NC(=O)[C@H](CC(=O)O)NC(=O)[C@H](CO)NC(=O)[C@@H](NC(=O)[C@H](Cc1ccccc1)NC(=O)[C@@H](NC(=O)CNC(=O)[C@H](CCC(N)=O)NC(=O)C(C)(C)NC(=O)[C@@H](N)Cc1c[nH]cn1)[C@@H](C)O)[C@@H](C)O)C(C)C)[C@@H](C)O)C(C)C)C(=O)N[C@@H](CCC(=O)O)C(=O)N[C@@H](C)C(=O)NC(C)(C)C(=O)NCC(=O)O` [Peptide 418] (H-H[Aib]QGTFTSDVSK[αMeF]LDTK([AEEA-AEEA-γGlu-γGlu-C20 diacid])RAQDFVAWLEA[Aib]G-OH; N-terminus assumed), the concentration for a half-maximal effect (EC50) amounted to 0.222 nM in assay [1] and 0.0881 nM in assay [2]. Moreover, the “% Relative Potency Ratio” value in assay [2] is given as 5.0.

Regarding `CC(C)C[C@H](NC(=O)[C@H](Cc1c[nH]c2ccccc12)NC(=O)[C@H](CCCNC(=N)N)NC(=O)[C@@H](NC(=O)[C@H](Cc1ccccc1)NC(=O)[C@H](CC(=O)O)NC(=O)[C@H](CCC(N)=O)NC(=O)[C@H](C)NC(=O)[C@H](CCCNC(=N)N)NC(=O)[C@H](CCCCNC(=O)COCCOCCNC(=O)COCCOCCNC(=O)CC[C@H](NC(=O)CCCCCCCCCCCCCCCCC(=O)O)C(=O)O)NC(=O)[C@@H](NC(=O)[C@H](CC(=O)O)NC(=O)[C@H](CC(C)C)NC(=O)[C@](C)(Cc1ccccc1)NC(=O)[C@H](CCCCN)NC(=O)[C@H](CO)NC(=O)[C@@H](NC(=O)[C@H](CC(=O)O)NC(=O)[C@H](CO)NC(=O)[C@@H](NC(=O)[C@H](Cc1ccccc1)NC(=O)[C@@H](NC(=O)CNC(=O)[C@H](CCC(N)=O)NC(=O)C(C)(C)NC(=O)[C@@H](N)Cc1c[nH]cn1)[C@@H](C)O)[C@@H](C)O)C(C)C)[C@@H](C)O)C(C)C)C(=O)N[C@@H](CCC(=O)O)C(=O)NC(C)(C)C(=O)N[C@@H](CCC(=O)O)C(=O)O` [Peptide 419] (H-H[Aib]QGTFTSDVSK[αMeF]LDTK([AEEA-AEEA-γGlu-C18 diacid])RAQDFVRWLE[Aib]E-OH; N-terminus assumed), the EC50 in assay [1] came out at 0.264 nM. Moreover, in assay [2], the EC50 worked out at 0.0969 nM and the “% Relative Potency Ratio” value is 5.4.
